Measured values as given in US12428422B2, “Purine derivatives as SIK-3 inhibitors” (RHIZEN PHARMACEUTICALS AG, priority 2020, dated 2025).

Tests used:
[1] = target: SIK3 (human) (Homo sapiens, UniProt Q9Y2K2); experiment: Enzymatic radiometric assay against human salt-inducible kinase-3 (SIK3); assay type: biochemical; conditions: at a concentration of 1 μM; read-out: inhibition of SIK-3 activity
Description: Assay 1: Determination of IC50 of Compound M1 Against Human Salt-Inducible Kinase-3 (SIK3) Using an Enzymatic Radiometric Assay
• SIK3 (human) was incubated with 8 mM MOPS pH 7.0, 0.2 mM EDTA, 100 uM of the peptide […] (Substrate), 10 mM Mg Acetate and [gamma-33P-ATP] (specific activity and concentration as required) in the presence of Compound M1. • The reaction was initiated by the addition of the Mg/ATP mix. • After incubation for 40 minutes at room temperature, the reaction was stopped by the addition of phosphoric acid to a concentration of 0.5%. • 10 μL of the reaction mixture was then spotted onto a P30 filtermat and washed four times for 4 minutes in 0.425% phosphoric acid and once in methanol prior to drying and scintillation counting. • The IC50 value was calculated using GraphPad Prism.

[2] = target: y isoform of PI3K (Homo sapiens, UniProt P48736); conditions: background statement; cited from earlier work
Chain of y isoform of PI3K (P48736 whole entry, canonical isoform): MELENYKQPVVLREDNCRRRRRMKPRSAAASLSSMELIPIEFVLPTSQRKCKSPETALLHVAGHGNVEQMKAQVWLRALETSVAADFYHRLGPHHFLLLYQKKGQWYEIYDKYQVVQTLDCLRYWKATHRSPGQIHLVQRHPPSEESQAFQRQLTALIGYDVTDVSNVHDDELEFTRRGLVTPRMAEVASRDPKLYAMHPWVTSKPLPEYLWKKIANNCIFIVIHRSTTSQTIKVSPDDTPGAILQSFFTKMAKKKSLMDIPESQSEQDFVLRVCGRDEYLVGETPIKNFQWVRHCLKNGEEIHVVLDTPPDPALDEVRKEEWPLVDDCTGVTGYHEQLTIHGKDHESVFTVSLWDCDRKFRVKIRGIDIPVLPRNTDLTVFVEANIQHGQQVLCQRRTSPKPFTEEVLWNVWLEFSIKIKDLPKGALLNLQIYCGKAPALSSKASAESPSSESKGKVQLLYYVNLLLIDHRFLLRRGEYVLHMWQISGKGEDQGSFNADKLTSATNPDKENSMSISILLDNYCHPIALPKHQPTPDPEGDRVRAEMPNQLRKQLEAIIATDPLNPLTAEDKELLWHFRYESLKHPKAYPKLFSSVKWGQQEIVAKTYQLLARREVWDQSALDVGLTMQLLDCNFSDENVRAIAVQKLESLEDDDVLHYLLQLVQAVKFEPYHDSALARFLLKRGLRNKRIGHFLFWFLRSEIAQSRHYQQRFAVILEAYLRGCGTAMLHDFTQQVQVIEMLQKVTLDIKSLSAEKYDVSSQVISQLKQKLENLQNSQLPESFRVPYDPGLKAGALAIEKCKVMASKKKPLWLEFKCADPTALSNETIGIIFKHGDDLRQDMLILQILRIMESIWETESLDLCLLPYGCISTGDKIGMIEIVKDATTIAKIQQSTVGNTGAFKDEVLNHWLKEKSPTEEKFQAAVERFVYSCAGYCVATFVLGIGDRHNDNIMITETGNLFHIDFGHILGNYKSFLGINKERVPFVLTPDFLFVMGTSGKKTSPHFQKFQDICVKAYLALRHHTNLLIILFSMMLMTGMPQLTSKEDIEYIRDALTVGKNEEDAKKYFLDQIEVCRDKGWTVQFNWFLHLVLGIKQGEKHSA

[3] = target: 6 isoform of PI3K (Homo sapiens, UniProt O00329); conditions: background statement; cited from earlier work
Chain of 6 isoform of PI3K (O00329 whole entry, canonical isoform): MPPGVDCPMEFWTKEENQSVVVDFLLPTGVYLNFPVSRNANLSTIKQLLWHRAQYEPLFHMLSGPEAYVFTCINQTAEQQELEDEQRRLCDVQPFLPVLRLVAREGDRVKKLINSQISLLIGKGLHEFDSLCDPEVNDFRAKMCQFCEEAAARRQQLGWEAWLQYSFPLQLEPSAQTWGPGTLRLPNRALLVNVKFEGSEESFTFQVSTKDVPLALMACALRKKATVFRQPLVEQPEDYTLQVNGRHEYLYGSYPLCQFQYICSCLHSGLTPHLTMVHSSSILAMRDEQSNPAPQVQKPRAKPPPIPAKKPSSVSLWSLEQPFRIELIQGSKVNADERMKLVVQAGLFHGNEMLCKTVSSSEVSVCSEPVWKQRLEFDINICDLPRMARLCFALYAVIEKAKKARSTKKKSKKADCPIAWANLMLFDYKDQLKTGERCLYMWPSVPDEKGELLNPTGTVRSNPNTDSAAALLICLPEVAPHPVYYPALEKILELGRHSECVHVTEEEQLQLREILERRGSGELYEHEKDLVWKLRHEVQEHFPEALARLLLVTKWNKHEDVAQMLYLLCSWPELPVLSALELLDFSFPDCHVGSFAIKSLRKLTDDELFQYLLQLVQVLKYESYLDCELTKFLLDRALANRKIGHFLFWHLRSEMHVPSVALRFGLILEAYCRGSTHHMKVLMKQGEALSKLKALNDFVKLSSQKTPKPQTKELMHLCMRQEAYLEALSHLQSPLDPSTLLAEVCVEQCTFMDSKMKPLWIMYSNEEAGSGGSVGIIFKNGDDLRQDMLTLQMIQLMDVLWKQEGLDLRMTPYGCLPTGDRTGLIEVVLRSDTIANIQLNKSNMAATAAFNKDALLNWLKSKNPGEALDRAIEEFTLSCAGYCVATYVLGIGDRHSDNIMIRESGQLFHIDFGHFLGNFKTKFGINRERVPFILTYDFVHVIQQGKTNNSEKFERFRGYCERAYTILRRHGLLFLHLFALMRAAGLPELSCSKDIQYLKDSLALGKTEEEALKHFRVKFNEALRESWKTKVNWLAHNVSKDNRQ
Chain of 6 isoform of PI3K (P27986 whole entry partner, canonical isoform): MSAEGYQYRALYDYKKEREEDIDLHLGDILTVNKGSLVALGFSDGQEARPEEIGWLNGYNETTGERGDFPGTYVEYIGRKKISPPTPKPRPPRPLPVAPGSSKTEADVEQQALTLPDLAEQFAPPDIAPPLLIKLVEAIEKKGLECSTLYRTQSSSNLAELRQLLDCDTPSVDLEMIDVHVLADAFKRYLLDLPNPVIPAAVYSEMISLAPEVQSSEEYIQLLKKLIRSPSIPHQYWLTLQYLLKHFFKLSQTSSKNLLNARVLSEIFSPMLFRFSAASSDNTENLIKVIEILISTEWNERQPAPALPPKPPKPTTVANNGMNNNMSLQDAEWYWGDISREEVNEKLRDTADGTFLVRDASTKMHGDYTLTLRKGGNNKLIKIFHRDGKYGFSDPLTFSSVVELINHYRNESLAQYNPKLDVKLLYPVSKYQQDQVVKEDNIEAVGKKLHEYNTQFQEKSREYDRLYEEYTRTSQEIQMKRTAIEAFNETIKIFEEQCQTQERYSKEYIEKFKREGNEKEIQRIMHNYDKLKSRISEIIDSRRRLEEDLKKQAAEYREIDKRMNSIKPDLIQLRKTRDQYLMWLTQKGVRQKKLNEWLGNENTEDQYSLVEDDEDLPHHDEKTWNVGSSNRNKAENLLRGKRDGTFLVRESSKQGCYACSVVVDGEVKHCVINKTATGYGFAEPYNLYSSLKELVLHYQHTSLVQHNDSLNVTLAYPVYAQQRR

[4] = Pharmacokinetic evaluation of patient plasma samples from a human clinical trial; assay type: in vivo; conditions: metabolite is Compound M1

Chain of SIK3 (human) (Q9Y2K2 whole entry): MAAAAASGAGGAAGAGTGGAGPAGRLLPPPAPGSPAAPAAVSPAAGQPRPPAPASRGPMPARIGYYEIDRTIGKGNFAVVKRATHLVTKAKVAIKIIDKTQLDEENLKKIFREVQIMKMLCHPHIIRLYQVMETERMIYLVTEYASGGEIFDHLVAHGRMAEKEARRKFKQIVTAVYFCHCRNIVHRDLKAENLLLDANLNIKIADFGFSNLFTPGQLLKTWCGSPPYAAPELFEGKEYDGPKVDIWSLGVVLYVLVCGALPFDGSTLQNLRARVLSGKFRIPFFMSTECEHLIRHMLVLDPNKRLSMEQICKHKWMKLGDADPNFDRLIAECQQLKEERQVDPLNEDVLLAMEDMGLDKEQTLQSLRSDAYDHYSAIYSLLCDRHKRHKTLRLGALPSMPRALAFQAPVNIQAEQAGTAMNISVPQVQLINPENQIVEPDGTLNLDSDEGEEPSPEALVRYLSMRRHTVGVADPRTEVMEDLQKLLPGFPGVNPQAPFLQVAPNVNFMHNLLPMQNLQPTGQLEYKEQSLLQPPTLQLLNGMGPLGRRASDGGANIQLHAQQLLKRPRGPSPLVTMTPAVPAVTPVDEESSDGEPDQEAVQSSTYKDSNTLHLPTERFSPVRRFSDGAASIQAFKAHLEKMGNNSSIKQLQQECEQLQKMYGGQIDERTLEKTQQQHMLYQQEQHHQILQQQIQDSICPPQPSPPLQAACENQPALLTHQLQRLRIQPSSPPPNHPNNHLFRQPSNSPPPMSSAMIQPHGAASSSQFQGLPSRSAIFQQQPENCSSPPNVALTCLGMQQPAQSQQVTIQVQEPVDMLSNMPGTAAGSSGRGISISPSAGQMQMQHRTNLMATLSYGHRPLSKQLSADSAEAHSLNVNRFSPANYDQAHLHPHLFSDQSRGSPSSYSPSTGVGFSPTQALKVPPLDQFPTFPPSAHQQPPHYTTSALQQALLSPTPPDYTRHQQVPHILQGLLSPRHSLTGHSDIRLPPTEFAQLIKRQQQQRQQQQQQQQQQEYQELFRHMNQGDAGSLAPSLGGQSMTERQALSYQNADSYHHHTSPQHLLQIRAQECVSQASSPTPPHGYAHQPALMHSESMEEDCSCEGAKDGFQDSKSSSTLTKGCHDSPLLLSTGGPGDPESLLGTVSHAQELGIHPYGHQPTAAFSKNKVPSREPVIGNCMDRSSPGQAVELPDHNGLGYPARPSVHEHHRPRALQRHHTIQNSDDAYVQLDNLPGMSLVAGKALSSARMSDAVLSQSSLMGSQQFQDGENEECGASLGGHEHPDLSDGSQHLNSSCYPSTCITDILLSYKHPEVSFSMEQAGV

| inhibition at 1 µM [1] [%] | Compound | potency against the 7 isoform of PI3K [2] | potency against the 6 isoform of PI3K [3] | metabolism in patients (metabolite formation) [4] |
| --- | --- | --- | --- | --- |
| 100 | CC[C@@H](Nc1ncnc2[nH]c(O)nc12)c1oc2ccccc2c(=O)c1-c1cccc(F)c1 [Compound M2, (R)-3-(3-fluorophenyl)-2-(1-((8-hydroxy-9H-purin-6-yl)amino)propyl)-4H-chromen-4-one] | – | – | – |
| – | CC[C@H](Nc1ncnc2nc[nH]c12)c1oc2ccccc2c(=O)c1-c1cccc(F)c1 [Tenalisib, 3-(3-fluorophenyl)-2-[(1S)-1-(7H-purin-6-ylamino)propyl]-chromen-4-one] | nanomolar potency | nanomolar potency | underwent metabolism to produce in some subjects |
